We go through one compound from patent US9493466B2, “Treatment of cancer with TOR kinase inhibitors” (Signal Pharmaceuticals, LLC, priority 2011, dated 2016).

One data set concerns HCT-116 tumors. The data set can be described thus: HCT-116 human colorectal cancer xenograft model. The class given is in vivo, SCID mice. As for the experimental part:
HCT-116 Human Colorectal Cancer Xenograft Model. The HCT-116 cell line was obtained from American Tissue Culture Collection (ATCC) (Gaithersberg, Md.) and grown in growth medium containing McCoy's 5A medium with 2 mM L-glutamine adjusted to contain 90% and 10% of fetal bovine serum. The cells were detached from tissue culture flasks using trypsin-EDTA. After centrifugation, the cell pellets were suspended in phosphate buffered saline (PBS) and counted using a hemocytometer. Matrigel was added to the cell suspension to adjust the final volume to 2×10^6 cells/0.1 mL of 1:1 mixture of Matrigel: PBS.
Female 6-8 weeks old CB17 SCID mice were obtained from Charles River Laboratories at a body weight of 17-20 g. Mice were anesthetized with inhaled isoflurane and then inoculated with HCT-116 tumor cells subcutaneously on the right hind leg with 0.1 mL of a single cell suspension using a sterile 1 mL syringe fitted with a 26 gauge needle. Following inoculation, the mice were returned to microisolator cages. The tumors were allowed to grow to about 100 mm^3 prior to randomization. The typical number of days required for tumors to reach 100 mm^3 was 7 to 8 days. The tumor of each animal was measured and animals with tumors ranging between 100 and 150 mm^3 were included in the study. The animals were distributed randomly into various cages and the cages were randomly assigned to vehicle, positive control, or test article groups. All of the mice were tagged with metal ear tags on the right ear. A typical group consisted of 8 to 10 animals.
Compound 1 was formulated in 0.5% CMC and 0.25% Tween 80 in water (as a suspension). The formulations were homogenized using a Teflon pestle and mortar (Potter-Elvehjem tissue grinder). Between the doses, the formulated compound was stored under constant stirring using a magnetic stirrer at 4° C. in the dark. The test article and vehicle were administered by oral gavage. The positive control (rapamycin) was prepared as solution in 2% ethanol, 45% polyethyleneglycol 400, and 53% saline and administered by IP injection. Vehicle and the test article were dosed in a volume of 5 mL/kg. The positive control rapamycin was dosed in a volume of 10 mL/kg. Sterile syringes and gavage needles were used for compound administration. All the procedures including injections were done in biosafety cabinets sprayed with ethanol prior to use.
Groups of female SCID mice bearing HCT-116 tumors (n=9-10/group) were dosed orally with vehicle or Compound 1 (1 mg/kg to 50 mg/kg) twice daily (BID), once daily (QD), every second day (Q2D), every third day (Q3D) or every 5th day (Q5D) throughout the study starting when the tumor volumes reached approximately 100 mm^3. The BID dose groups were dosed with a 10 h separation between the morning and evening doses. In the positive control group, rapamycin (n=6/group) was administered via the intraperitoneal (IP) route Q3D. At the end of each study, plasma and/or tumor samples were collected.
Tumor volumes were determined prior to the initiation of treatment and were considered as the starting volumes. Thereafter, tumors were measured twice a week for the duration of the study. The long and short axes of each tumor were measured using a digital caliper in millimeters. The tumor volumes were calculated using the formula: width^2×length/2 (using long [L] and short [W] axes of tumors). The tumor volumes were expressed in cubic millimeters (mm^3). Tumor volume data are expressed as mean±SE. The difference in tumor volume between vehicle and treatment group was expressed in percent volume reduction=100−tumor volume of treated/tumor volume of control×100. Statistical analysis was done using Graphpad Prism. Comparison between multiple groups was done using one-way ANOVA with Newman-Keuls post-test with a 95% significance level.
Initial body weights were recorded prior to the initiation of treatment using a digital scale. […]
(In general: Xenograft models place foreign cells or tissue in a host animal.)

A further data set deals with U87MG tumors. The data set is described as follows: Ki67 immunohistochemistry in U87MG tumors. It is filed as in vivo, mice. The note with it: 5 mg/kg BID oral for 4 days; p<0.001. As for the experimental part:
Mechanism of action studies. To determine the mechanism of action of Compound 1, mice bearing U87MG tumors of approximately 500 mm^3 were dosed orally with vehicle or Compound 1 at 5 mg/kg BID for 4 days. The positive control, rapamycin, was dosed at 4 mg/kg Q3D for 4 days. Two hours after the 7th dose of Compound 1 on day 4, animals were euthanized and tumors were dissected out and snap frozen in liquid nitrogen. In the rapamycin-treated group tumors were collected at 2 hour after the 2nd dose on day 4. The tumors were processed for immunohistochemistry (IHC) or TUNEL.
Immunohistochemistry. Five to ten micron (5-10 μm) thick cryostat sections were used for IHC. The expression of the cell proliferation marker Ki67 was evaluated by IHC using anti-Ki67 antibody. […] The sections were visualized with a Nikon E800 microscope equipped with fluorescence detection equipment and a digital camera attached to a computer.
Quantitation of Immunohistochemistry. The tissues sections processed for apoptosis or immunostained for proliferating cells (Ki67) or blood vessels were quantitated using Metamorph software. Using 20× objective, 5 different fields from each section, 2-4 sections from each tumor, and 3-4 tumors from each treatment group or control were used for quantitation. The area of interest was expressed as the percent threshold area of the total area. […]

Take `CO[C@H]1CC[C@H](N2C(=O)CNc3ncc(-c4ccc(C(C)(C)O)nc4)nc32)CC1` [Compound 1, 7-(6-(2-hydroxypropan-2-yl)pyridin-3-yl)-1-((1r,4r)-4-methoxycyclohexyl)-3,4-dihydropyrazino-[2,3-b]pyrazin-2(1H)-one]: the tumor growth inhibition result in the data set with HCT-116 tumors (5 mg/kg (BID), 10 mg/kg (BID), 25 mg/kg (QD and Q2D), Day 25) is listed as “Significant (p<0.001) tumor growth inhibition”. Besides, in the data set on HCT-116 tumors (10 mg/kg BID), the Body weight loss was found to be 16.9% and the tumor volume reduction result is on record as “Approximately 50%”. In the data set on HCT-116 tumors (25 mg/kg QD), this compound displayed a Body weight loss of 14%. The “minimum dose required to obtain >65% tumor volume reduction compared to vehicle” value with HCT-116 tumors (QD oral) turned out to be 25 mg/kg. Moreover, the “change in body weight” value in the data set with HCT-116 tumors (any other group) is “No significant change”. Moreover, in the data set with U87MG tumors, the “reduction in the number of proliferating cells (Ki67) compared with vehicle” value stood at 59%.
